Test results published in patent US7504384B2 (priority 2000, dated 2009).

Key:
mice = test: Acute (7 day) toxicity test; format: in vivo; conditions: for Body weight (g) Final / Hematocrit % / RBC × 10^6 / WBC × 10^3: 7 day; for Body weight (g) Final / Hematocrit % / RBC × 10^6 / WBC × 10^3 / Body weight (g) Start: mean ± SEM; for toxicity: mortality rate, body weight, blood count, hematocrit, internal organ histology: mice, one week after a single i.p. dose of 1000, 500 or 200 mg/kg, versus untreated mice
Procedure: […] Mortality rate, body weight, blood count (red and white cells), hematocrit, and internal organ histology after sacrifice were assessed. These parameters were compared in Lipid-conjugate-treated and in control, untreated mice.

HIV-1IIIB = test: Inhibition of p24 production (HIV-1IIIB infection of MT-2 cells); format: cell-based; conditions: fourth day, p24 ELISA
Procedure: Experiment 1.2: Inhibition of HIV-1IIIB Infection
After 1 h, half of the culture medium was changed and replaced by fresh medium (with/without Lipid-conjugate) and after 24 h, the second half of the culture medium was changed and replaced by fresh medium (with/without Lipid-conjugate). On the fourth day after incubation at 37° C., 100 μl of culture supernatants were collected from each well and an equal volume of fresh medium was added to the wells. The collected supernatants were mixed with an equal volume of 5% (v/v) Triton X-100 and assayed for p24 antigen using an ELISA kit from Coulter Immunology (Hialeah, Fla.).

TNF-α and IL-6 in serum = test: Serum cytokine levels in septic rats (ELISA); format: in vivo, rat
Procedure: Blood samples were collected 1, 6, 12, and 24 hours after LPS injection to assess cytokine concentrations (FIG. 4.3A). […] Thereafter, the animals received LPS (7.5 mg/kg) i.p. alone or together with Compound XXII (150 mg/kg) or Compound XXV (50 mg/kg). Blood samples were collected after LPS injection. A group of rats that was not treated with Lipid-conjugates or LPS served as negative controls (FIG. 4.3B). All cytokines were measured in separated serum by ELISA Immunoassays (R&D Systems GmbH, Wiesbaden, Germany) according to the instructions of the manufacturer.
In Experiment 4.5, sepsis was induced by LPS ([…] endotoxin, 5 mg/kg) and lipoteichoic acid (LTA, […] endotoxin, 5 mg/kg; Staph. aureus LTA, Sigma, Germany).

[1] = tested on: rats with endotoxin-induced sepsis; test: Rat survival in LPS-induced endotoxinemia; format: in vivo; conditions: 100 mg/kg 3 hours before LPS (15 mg/kg i.p.) and 50 mg/kg with LPS; 48 hours
Procedure: Endotoxins administered to animals produce cardiovascular and multiorgan disorders that are similar to clinical sepsis. Thus, in the present study, a rat model was developed to test possible Lipid-conjugate effects on mediator production and mortality in endotoxin-induced Sepsis. Rats were intraperitoneally (i.p.) or intravenously (i.v.) injected with a Lipid-conjugate (Compound XXII, 100 mg/kg) dissolved in sterile saline or with sterile saline alone as placebo. After 3 hours, all rats received LPS (15 mg/kg i.p.; Escherichia coli 111:B44 LPS, Sigma, Deisenhofen, Germany). In rats that were pretreated with Compound XXII, LPS was injected together with a second dose of Compound XXII (50 mg/kg). The effect of Compound XXII on LPS injected rats was observed over a time period of 48 hours.

HIV = HIV infectivity of supernatant from whole blood mixed with HIV, on HT4-1022 cells; format: cell-based; conditions: whole blood mixed with HIV and Lipid-conjugate (50 μM Compound XXIV, 30 μM Compound XXII) for 30 min; FIG. 1.1
Source text: The cells were then spun and the supernatant was examined for HIV infectivity on HT4-1022 cells as described by Margolis-Nunno et al. (Transfusion, 36, 743-750, 1996).

[2] = biological target: V3 (third variable) domain of the HIV-1 envelope glycoprotein gp120; test: V3 antibody binding (ELISA); set-up: species or system human immunodeficiency virus type 1 (HIV-1); conditions: standard ELISA
Procedure: V3 antibody binding is an assay that uses an antibody that binds to the V3 (third variable) domain of the human immunodeficiency virus type 1 (HIV-1) envelope glycoprotein gp120. Anti-V3 domain antibodies may provide an indicator of the presence and amount of HIV. V3 antibody binding was determined by standard ELISA.

[3] = tested on: HIV-1IIIB-infected H9 cells and uninfected MT-2 cells; test: Inhibition of fusion between HIV-infected and uninfected cells; format: cell-based; conditions: for IC50 (mean ± SD), inhibition of fusion / IC90 (mean ± SD), inhibition of fusion: H9/HIV-1 IIIB + MT-2 cells, 2 h; for IC50 / IC90: Table 1.4
Procedure: In this assay, HIV-1IIIB-infected H9 cells were labeled with BCECF (2′,7′-bis(2-carboxyethyl)-5-6-carboxyfluorescein-acetoxymethyl-ester, Molecular Probes, Eugene, Oreg.) according to the manufacturer's instructions. BCECF-labeled H9/HIV-1 IIIB cells (10^4) were mixed with 1×10^5 uninfected MT-2 cells. After incubation in a 96-well plate at 37° C. for 2 h, the fused and unfused labeled cells were counted under an inverted fluorescence microscope at ×160 magnification. At least 200 BCECF-labeled cells were counted and the proportion of fused cells was determined Fusion tests were carried out in the presence and absence of graded quantities of the tested Lipid-conjugates. […] The IC50 represents the concentration of a drug that is required to achieve 50% inhibition. Similarly, the IC90 represents the concentration of a drug that is required to achieve 90% inhibition.

[4] = tested on: Influenza A (H3N2 strain) virus; format: cell-based, Influenza type A, A/Panama/2007/99 (H3N2); conditions: high concentration, Neutral Red Uptake Assay
Punta Toro virus = format: cell-based, strain Adames

## dipalmitoyl-PE conjugated to HA [Compound XXII]
mice; 250 mg/kg body weight
  Body weight (g) Final: 23.1 ± 0.6 g
  Hematocrit %: 43.3 ± 0.7%
  RBC × 10^6: 11.4 ± 0.1 × 10^6
  WBC × 10^3: 7.7 ± 0.2 × 10^3
  Body weight (g) Start: 22.1 ± 0.4 g
mice; 500 mg/kg body weight
  Body weight (g) Final: 22.3 ± 0.4 g
  Hematocrit %: 44.7 ± 2.3%
  RBC × 10^6: 11.5 ± 0.3 × 10^6
  WBC × 10^3: 8.1 ± 1.3 × 10^3
  Body weight (g) Start: 21.4 ± 0.3 g
mice; 1000 mg/kg body weight
  Body weight (g) Final: 22.1 ± 0.2 g
  Hematocrit %: 40.3 ± 0.7%
  RBC × 10^6: 10.9 ± 0.4 × 10^6
  WBC × 10^3: 7.4 ± 0.6 × 10^3
  Body weight (g) Start: 21.7 ± 0.2 g
mice
  toxicity: mortality rate, body weight, blood count, hematocrit, internal organ histology: did not alter the parameters
HIV-1IIIB
  IC50: 3.11 µM
  IC50 (mean ± SD), inhibition of p24 production: 207.0 ± 18.0 µg/mL
  IC90: 5.76 µM
  IC90 (mean ± SD), inhibition of p24 production: 384.3 ± 79.3 µg/mL
TNF-α and IL-6 in serum; 150 mg/kg, 5 mg/kg i.p. LPS, or LPS + 5 mg/kg i.p. LTA, 1 and 6 hours
  cytokine production induced by LPS or LPS + LTA: effective in suppressing cytokine production
TNF-α and IL-6 in serum; i.v. at the same time as LPS i.p., versus i.p. pretreatment
  endotoxin-induced cytokine production: suppressed equally well
[1]
  mortality rate among septic rats: markedly reduced the mortality rate
HIV
  HIV infectivity: prevent HIV infection of cells
[2]
  IC50: 45 µM
[3]
  IC50 (mean ± SD), inhibition of fusion: >500 µg/mL
  IC90 (mean ± SD), inhibition of fusion: >500 µg/mL
  IC50: > 7.5 µM
  IC90: > 7.5 µM

## dipalmitoyl-phosphatidyl-ethanolamine conjugated to heparin [Compound XXIV]
mice
  toxicity: mortality rate, body weight, blood count, hematocrit, internal organ histology: did not alter the parameters
HIV-1IIIB
  IC50: 0.7 µM
  IC50 (mean ± SD), inhibition of p24 production: 10.0 ± 2.3 µg/mL
  IC90: 1.35 µM
  IC90 (mean ± SD), inhibition of p24 production: 19.3 ± 4.5 µg/mL
[4]
  EC50: 900 µg/mL
HIV
  HIV infectivity: prevent HIV infection of cells
Punta Toro virus
  SI (IC50/EC50): 0
Punta Toro virus; low concentrations, Visual Observation Assay, Punta Toro A
  EC50: >100 µg/mL
Punta Toro virus; lower range of doses, at the concentrations tested
  virus inhibitory effect against Punta Toro virus: did not display a virus inhibitory effect
[2]
  IC50: 140 µM
[3]
  IC50 (mean ± SD), inhibition of fusion: 7.9 ± 1.3 µg/mL
  IC90 (mean ± SD), inhibition of fusion: 15.3 ± 3.9 µg/mL
  IC50: 0.55 µM
  IC90: 1.07 µM
